Values belong to the compound of their own block, whether it stands above or below them. The source made the active and inactive calls.
Experiments:
[1] = HPDE-C7 pancreatic duct cell viability loss – fluorescence, HTS (AID 430); type: functional, cell-based; settings: Homo sapiens
[2] = system: HEK293; assay: cells; type: functional, cell-based; settings: Homo sapiens
[3] = system: HEK293; assay: inhibition of NOD1-driven NF-kB reporter – cell-based, luminescence, uHTS, primary screen (AID 1578); type: functional; settings: Homo sapiens
[4] = system: HEK293; assay: cells; type: functional, cell-based; settings: Homo sapiens; remark: listed apart in the source
[5] = A549 cell cytotoxicity, dose response, cytotoxicity control, plate reader, cherry-pick, antagonist series (AID 743412); type: functional, cell-based
[6] = viability loss of HPDE-C7K cells – cell-based, fluorescence, HTS, primary screen (AID 431); type: functional; settings: Homo sapiens
[7] = viability of HCT116 lacking mutant beta-catenin – cell-based, human colon tumor, dose response (AID 1045); type: functional;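 note: HCT116 colon tumor cells with beta catenin knocked out; cells exposed to compound for 60 hours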
[8] = blockers of bursicon-stimulated LGR2 cAMP reporter – cell-based, HEK293, CRE-luciferase reporter, cherry pick, set 2, dose response (AID 743343); type: functional;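 note: transfected cells were stimulated with diluted bursicon conditioned medium after compound addition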
[9] = biological target: Nucleotide-binding oligomerization domain-containing protein 2 (Homo sapiens, UniProt Q9HC29); assay: PubChem AID 2334; type: functional
[10] = biological target: T1, Nucleotide-binding oligomerization domain-containing protein 1 (Homo sapiens, UniProt Q9Y239); assay: blockers of NOD1 pathway activity – revised, SAR follow-up (AID 2333); type: functional
T1 sequence (Q9Y239 whole entry): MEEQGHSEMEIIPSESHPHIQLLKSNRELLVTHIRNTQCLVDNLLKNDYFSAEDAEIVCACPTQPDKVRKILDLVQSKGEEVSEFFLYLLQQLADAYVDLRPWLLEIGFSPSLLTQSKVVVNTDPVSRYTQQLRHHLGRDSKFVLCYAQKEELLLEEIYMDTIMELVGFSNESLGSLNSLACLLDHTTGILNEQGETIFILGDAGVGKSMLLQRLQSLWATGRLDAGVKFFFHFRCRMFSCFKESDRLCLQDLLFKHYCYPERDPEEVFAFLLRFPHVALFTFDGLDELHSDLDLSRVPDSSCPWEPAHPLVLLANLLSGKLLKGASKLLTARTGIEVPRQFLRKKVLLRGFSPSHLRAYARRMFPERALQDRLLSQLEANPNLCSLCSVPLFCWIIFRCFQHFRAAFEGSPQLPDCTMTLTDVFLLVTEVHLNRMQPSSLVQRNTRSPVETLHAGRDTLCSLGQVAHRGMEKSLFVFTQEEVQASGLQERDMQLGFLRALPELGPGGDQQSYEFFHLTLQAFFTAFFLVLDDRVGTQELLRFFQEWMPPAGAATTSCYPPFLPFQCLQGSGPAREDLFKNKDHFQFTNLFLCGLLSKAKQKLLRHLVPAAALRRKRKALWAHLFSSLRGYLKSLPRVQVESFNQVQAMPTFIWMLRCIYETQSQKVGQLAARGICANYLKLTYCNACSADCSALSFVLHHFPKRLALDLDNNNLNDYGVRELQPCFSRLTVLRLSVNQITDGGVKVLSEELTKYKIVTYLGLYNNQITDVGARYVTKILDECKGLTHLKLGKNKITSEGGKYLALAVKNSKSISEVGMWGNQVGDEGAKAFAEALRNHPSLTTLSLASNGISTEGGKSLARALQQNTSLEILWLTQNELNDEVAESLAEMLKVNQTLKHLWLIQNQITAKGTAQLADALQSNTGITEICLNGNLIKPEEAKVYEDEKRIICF

[11] = blockade of melanocortin 4 receptor signaling – cell-based, plate reader, cherry pick, counter-screen for LGR2 antagonist project, dose response (AID 743444); type: functional;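 note: transfected HEK 293 cells stimulated with alpha-MSH peptide; potency of inhibitors of the alpha-MSH evoked signal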
[12] = viability of PTEN-deleted HCT116 cells – cell-based, HCT116 PTEN knockout, dose response (AID 1047); type: functional;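 note: HCT116 colon tumor cells with PTEN knocked out; cells exposed to compound for 60 hours before readout; potency for loss of cell viability measured by luminescence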
[13] = biological target: Tumor necrosis factor (Homo sapiens, UniProt P01375); assay: analog potency on TNFa NF-kB signaling – cell-based, revised, SAR follow-up (AID 2337); type: functional
[14] = system: HEK293; assay: cells; settings: Homo sapiens
[15] = system: HEK293; assay: NOD2 signaling inhibitors in MDP-stimulated cells, cell-based, uHTS, luminescence (AID 2001); type: functional; settings: Homo sapiens
[16] = biological target: T2, Voltage-gated N-type calcium channel alpha-1B subunit/Amyloid beta A4 precursor protein-binding family A member 1 (Homo sapiens, UniProt Q00975+Q02410); assay: disruptors of Mint-PDZ/N-type channel peptide interaction – biochemical, HTRF, SAR follow-up (AID 2489); type: functional
[17] = biological target: T2, Voltage-gated N-type calcium channel alpha-1B subunit/Amyloid beta A4 precursor protein-binding family A member 1; assay: disruptors of Mint-PDZ/N-type channel peptide interaction – biochemical, HTRF, set 2, SAR follow-up (AID 434980); type: functional
[18] = biological target: T3, Eukaryotic translation initiation factor 2-alpha kinase 3 (Homo sapiens, UniProt Q9NZJ5); assay: Counterscreen assay for PERK inhibitors: Dose response cell-based high throughput screening assay to measure inhibition of PERK at 6 hours. [Related pubchem assays: 1522, 1416 ]; type: functional
T3 sequence (Q9NZJ5 whole entry): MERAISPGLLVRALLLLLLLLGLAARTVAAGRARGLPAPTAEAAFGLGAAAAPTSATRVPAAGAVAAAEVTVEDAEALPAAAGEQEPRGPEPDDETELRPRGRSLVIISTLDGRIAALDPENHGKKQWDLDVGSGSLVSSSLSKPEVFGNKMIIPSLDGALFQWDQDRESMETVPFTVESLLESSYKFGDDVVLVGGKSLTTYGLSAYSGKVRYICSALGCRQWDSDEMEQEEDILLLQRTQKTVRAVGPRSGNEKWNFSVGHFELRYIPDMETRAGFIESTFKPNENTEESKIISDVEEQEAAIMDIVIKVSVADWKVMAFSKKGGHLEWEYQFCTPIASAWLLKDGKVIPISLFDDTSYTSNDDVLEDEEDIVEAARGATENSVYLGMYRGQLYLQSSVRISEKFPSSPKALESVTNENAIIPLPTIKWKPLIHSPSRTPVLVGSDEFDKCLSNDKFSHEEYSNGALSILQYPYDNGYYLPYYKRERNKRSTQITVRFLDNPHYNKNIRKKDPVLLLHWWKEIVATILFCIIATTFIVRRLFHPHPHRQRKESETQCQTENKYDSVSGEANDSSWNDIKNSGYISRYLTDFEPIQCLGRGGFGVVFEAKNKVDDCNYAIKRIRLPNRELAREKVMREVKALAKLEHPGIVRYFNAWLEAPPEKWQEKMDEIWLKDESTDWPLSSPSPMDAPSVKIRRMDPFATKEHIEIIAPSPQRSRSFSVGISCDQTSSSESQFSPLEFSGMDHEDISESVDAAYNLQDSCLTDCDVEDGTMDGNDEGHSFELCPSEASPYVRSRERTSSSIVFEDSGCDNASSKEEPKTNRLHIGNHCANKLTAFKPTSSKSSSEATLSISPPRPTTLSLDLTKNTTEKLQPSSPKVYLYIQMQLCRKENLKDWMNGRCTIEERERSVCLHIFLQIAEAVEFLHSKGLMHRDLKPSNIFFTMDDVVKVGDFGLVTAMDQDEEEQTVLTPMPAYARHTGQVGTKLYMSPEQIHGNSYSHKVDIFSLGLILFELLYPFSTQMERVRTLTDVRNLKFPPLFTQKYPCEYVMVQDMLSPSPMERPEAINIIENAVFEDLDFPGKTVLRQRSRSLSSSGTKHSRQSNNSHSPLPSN

[19] = biological target: T3, Eukaryotic translation initiation factor 2-alpha kinase 3; assay: Dose response cell-based high-throughput screening assay to measure PERK inhibition. [Related pubchem assays: 1416 ]; type: functional
[20] = biological target: Beta-galactosidase (Escherichia coli, UniProt Q8VNN2); assay: detection-enzyme interference by beta-gal modulators – biochemical, E. coli enzyme, set 3, artefact control for CCR6 antagonist project, dose response (AID 504712); type: functional
[21] = biological target: C-C chemokine receptor type 6 (Homo sapiens, UniProt P51684); assay: antagonism of CCR6 beta-arrestin recruitment – cell-based, luminescent beta-arrestin readout, dose response (AID 504728); type: functional
[22] = biological target: T4, Rac GTPase-activating protein 1 (Homo sapiens, UniProt Q9H0H5); assay: blockers of MgcRacGAP-driven Rac1 GTP hydrolysis – biochemical, ADP Hunter fluorescence, primary and confirmatory, confirmation (AID 624330); type: functional
T4 sequence (Q9H0H5 whole entry): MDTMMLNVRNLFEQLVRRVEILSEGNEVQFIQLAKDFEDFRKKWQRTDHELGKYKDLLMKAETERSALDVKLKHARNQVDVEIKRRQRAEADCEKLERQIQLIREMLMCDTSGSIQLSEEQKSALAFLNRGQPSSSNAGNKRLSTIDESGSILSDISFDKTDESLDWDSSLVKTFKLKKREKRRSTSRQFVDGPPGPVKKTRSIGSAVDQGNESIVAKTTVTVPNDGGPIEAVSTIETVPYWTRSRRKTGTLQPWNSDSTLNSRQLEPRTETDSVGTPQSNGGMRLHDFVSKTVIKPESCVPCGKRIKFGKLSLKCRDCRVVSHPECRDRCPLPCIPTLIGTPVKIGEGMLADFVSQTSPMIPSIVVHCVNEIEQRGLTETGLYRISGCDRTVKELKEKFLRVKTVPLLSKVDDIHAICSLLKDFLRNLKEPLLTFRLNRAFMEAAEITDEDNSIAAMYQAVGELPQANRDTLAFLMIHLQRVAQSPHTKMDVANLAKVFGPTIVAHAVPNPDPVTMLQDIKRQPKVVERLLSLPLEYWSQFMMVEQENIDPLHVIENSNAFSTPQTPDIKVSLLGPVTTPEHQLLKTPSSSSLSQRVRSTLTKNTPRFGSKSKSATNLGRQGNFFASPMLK

[23] = loss of viability in HepG2 cells – cell-based, CellTiter-Glo, cherry-picked, cytotoxicity control for Shn3 inhibitor project, dose response (AID 624134); type: functional
[24] = non-specific 3'UTR reporter inhibition in Clone20-Shn3RL – cell-based, Renilla luciferase, cherry-picked, counter-screen for Shn3 inhibitor project, dose response (AID 624133); type: functional
[25] = biological target: T5, Fatty acid synthase (Homo sapiens, UniProt P49327); assay: inhibition of human FAS-TE enzyme activity – biochemical, endpoint fluorescence intensity, uHTS hits, dose response (AID 624327); type: functional;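 note: fluorescence from hydrolysis of an O-methyl fluorescein acyl ester substrate by the enzyme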
[26] = viability loss in HeLa cells – cytotoxicity control for MgcRacGAP inhibitor project, dose response (AID 624300); type: functional
[27] = biological target: T5, Fatty acid synthase; assay: inhibition of human FAS-TE enzyme activity – biochemical, kinetic fluorescence intensity, dose response (AID 624326); type: functional;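 note: rate of fluorescence rise from hydrolysis of a fluorogenic O-methyl fluorescein ester substrate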
[28] = reduction of Shn3 3'UTR-driven luciferase in osteoblasts – cell-based, Clone20 osteoblasts, firefly luciferase, cherry-picked, dose response (AID 624132); type: functional;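 note: firefly luciferase luminescence from reporter carrying the Shn3 3'UTR in osteoblasts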
[29] = biological target: Genome polyprotein (dengue virus type 2, UniProt P29990); assay: flavivirus cap methylation enzyme inhibition – biochemical, confirmation dose response, primary screen (AID 588689); type: functional
[30] = system: Vero; assay: viability of Vero cells under compound – cytotoxicity control for flavivirus capping enzyme inhibitors (AID 588742); type: functional; settings: Chlorocebus sabaeus
[31] = biological target: Metabotropic glutamate receptor 4 (Rattus norvegicus, UniProt P31423); assay: Modulation of the Metabotropic Glutamate Receptor mGluR4: Rat PAM Potency. [Related pubchem assays (depositor defined):AID2437, AID2807]; type: functional
[32] = biological target: FAD-linked sulfhydryl oxidase ALR (Homo sapiens, UniProt P55789); assay: ALR-catalysed DTT oxidation blockers – biochemical, H2O2 detection, luminescence, cherry-pick, dose response (AID 493248)
Sequence of FAD-linked sulfhydryl oxidase ALR (P55789 whole entry): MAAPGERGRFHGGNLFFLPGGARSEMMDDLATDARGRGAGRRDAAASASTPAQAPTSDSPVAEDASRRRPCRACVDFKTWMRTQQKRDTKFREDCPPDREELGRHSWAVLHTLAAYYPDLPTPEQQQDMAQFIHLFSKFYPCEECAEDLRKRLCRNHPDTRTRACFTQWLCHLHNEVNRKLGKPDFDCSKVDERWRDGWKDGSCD

T2 sequence (Q00975 whole entry): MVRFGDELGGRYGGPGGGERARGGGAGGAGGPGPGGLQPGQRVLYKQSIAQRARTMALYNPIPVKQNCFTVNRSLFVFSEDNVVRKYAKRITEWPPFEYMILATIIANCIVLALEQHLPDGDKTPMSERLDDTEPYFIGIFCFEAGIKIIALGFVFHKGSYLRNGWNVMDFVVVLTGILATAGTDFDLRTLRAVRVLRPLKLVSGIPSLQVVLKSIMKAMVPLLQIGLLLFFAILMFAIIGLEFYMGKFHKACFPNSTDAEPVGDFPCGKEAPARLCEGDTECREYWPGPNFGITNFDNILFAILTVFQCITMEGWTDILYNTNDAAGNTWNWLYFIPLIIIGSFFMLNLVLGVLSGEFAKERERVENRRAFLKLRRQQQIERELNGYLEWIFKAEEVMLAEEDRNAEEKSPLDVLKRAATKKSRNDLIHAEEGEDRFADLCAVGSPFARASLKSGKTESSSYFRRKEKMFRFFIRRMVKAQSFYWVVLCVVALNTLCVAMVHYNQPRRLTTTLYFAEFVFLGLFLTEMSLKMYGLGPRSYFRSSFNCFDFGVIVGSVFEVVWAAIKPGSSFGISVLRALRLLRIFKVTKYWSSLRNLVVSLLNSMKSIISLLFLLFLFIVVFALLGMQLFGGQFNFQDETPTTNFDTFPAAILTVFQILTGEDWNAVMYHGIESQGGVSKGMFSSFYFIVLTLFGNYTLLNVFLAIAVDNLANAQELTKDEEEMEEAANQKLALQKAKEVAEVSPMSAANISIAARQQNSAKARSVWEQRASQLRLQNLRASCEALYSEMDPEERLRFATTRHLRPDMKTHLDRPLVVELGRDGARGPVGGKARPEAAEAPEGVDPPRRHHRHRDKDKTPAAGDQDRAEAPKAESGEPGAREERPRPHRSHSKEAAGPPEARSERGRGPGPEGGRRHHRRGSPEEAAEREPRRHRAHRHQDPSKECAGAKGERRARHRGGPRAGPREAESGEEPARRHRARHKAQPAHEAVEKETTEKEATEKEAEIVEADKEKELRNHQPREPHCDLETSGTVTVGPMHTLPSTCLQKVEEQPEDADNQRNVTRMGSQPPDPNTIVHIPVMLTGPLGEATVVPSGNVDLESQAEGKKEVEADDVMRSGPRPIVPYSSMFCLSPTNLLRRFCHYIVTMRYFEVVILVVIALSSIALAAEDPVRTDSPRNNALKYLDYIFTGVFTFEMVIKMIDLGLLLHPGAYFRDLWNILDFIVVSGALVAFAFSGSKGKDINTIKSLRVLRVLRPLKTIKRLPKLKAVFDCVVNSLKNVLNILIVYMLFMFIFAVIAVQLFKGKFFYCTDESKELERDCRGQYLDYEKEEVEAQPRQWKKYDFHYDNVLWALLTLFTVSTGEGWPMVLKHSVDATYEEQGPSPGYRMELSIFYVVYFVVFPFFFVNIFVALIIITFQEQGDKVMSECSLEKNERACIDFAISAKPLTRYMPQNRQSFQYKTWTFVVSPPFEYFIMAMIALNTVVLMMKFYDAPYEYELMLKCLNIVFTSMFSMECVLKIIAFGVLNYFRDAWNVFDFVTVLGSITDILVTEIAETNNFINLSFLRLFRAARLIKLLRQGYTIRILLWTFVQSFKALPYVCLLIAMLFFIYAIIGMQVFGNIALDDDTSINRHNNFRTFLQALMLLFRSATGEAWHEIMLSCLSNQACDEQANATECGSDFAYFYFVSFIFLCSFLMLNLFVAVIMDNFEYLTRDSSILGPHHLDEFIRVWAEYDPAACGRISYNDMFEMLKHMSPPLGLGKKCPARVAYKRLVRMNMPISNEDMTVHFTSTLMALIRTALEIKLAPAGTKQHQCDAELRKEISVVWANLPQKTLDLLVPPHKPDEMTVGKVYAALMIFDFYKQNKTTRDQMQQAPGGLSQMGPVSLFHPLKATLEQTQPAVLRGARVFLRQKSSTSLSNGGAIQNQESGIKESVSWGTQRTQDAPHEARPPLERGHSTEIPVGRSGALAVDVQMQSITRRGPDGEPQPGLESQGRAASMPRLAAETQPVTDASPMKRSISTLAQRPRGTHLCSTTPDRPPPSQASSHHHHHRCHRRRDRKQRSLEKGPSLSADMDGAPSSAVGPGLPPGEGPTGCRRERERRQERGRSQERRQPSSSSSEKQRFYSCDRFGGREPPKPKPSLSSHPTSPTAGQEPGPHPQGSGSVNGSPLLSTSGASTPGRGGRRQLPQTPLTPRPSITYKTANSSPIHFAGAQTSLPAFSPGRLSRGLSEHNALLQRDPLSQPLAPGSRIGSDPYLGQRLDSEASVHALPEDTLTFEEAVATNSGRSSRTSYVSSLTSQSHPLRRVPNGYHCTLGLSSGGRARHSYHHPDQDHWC
T2 sequence (Q02410 whole entry): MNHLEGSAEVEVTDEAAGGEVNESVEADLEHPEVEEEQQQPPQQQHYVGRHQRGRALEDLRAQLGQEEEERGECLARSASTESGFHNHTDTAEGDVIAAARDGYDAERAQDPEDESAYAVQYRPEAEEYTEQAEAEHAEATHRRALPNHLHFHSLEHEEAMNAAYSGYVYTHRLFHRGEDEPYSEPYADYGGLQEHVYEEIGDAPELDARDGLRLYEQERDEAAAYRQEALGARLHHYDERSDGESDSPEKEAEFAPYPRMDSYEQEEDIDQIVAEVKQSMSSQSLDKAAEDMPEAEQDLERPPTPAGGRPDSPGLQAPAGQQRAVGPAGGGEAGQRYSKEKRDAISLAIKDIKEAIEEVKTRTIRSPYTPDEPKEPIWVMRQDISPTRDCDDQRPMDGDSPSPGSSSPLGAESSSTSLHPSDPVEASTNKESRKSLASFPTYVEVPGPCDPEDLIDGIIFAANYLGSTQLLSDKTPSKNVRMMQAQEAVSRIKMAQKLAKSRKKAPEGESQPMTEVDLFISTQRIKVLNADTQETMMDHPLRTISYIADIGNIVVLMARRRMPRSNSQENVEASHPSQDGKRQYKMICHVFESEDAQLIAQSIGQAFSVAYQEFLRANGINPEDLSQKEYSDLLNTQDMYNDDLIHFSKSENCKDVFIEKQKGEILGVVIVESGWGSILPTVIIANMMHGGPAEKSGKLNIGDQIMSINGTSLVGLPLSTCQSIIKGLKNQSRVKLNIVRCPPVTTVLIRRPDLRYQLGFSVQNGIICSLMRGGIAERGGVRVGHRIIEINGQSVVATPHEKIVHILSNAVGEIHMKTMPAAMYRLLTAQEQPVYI
Sequence of Tumor necrosis factor (P01375 whole entry): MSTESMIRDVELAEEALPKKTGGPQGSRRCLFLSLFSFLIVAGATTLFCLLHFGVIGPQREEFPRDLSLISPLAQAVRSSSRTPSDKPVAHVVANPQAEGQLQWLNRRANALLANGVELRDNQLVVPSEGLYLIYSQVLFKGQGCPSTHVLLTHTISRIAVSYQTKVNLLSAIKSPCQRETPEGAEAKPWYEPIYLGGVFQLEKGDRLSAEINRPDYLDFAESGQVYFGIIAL
Sequence of Nucleotide-binding oligomerization domain-containing protein 2 (Q9HC29 whole entry, the tested form may be a part): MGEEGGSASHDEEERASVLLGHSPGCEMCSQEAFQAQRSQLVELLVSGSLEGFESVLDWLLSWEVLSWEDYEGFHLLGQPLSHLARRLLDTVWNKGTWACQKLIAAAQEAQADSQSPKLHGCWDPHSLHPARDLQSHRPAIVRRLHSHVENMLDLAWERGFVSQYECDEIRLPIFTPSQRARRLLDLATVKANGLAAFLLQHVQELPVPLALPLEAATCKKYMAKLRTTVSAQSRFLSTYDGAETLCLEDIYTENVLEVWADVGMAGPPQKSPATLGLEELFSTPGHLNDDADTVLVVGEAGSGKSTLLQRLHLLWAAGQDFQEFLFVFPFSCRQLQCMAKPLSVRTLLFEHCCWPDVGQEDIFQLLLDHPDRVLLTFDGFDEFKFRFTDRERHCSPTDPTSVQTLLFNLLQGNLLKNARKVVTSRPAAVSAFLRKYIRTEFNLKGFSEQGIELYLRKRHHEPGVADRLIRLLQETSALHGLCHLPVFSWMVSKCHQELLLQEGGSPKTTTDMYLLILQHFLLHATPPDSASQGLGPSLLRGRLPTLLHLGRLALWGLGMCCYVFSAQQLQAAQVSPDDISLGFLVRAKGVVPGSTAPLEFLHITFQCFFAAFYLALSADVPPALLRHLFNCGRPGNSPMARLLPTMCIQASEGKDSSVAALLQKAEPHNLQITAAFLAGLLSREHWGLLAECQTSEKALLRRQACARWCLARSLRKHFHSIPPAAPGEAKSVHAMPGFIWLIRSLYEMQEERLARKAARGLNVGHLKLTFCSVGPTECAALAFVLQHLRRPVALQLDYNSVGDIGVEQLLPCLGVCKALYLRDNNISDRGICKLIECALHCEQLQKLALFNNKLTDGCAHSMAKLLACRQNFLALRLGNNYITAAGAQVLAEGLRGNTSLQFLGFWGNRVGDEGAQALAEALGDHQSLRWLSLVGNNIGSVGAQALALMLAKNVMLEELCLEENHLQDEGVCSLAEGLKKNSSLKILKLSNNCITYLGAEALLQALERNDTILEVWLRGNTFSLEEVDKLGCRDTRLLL
Sequence of C-C chemokine receptor type 6 (P51684 whole entry): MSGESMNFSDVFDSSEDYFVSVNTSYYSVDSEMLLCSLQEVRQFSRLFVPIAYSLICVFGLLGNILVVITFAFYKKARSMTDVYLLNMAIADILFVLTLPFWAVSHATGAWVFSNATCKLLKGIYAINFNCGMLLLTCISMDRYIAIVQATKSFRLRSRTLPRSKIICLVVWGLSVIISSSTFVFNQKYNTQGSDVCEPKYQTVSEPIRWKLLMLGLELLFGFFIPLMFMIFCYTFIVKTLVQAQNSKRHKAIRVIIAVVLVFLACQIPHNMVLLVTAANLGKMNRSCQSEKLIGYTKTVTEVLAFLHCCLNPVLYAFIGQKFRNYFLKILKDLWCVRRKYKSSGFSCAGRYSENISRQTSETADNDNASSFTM

- IC50 [16]: > 56.8 µM (inactive)
- IC50 [17]: > 56.8 µM (inactive)
SMILES: O=C(c1cc(-c2ccco2)nc2ccccc12)N1CCCCC1Cc1ccccc1 (stereo not given)

- EC50 [18]: > 55.7 µM (not active)
- EC50 [19]: > 55.7 µM (not active)
SMILES: Cc1ccc(NC(=O)COC(=O)CCc2c[nH]c(O)n2)cc1

- IC50 [20]: > 66.6 µM (inactive)
- IC50 [21]: > 66.6 µM (inactive)
SMILES: C=CCS/C(N)=N\N=C\c1cc(Br)cc([N+](=O)[O-])c1O

- AC50 [32]: 3.67 µM (active)
- EC50 [18]: > 55.7 µM (not active)
- EC50 [19]: > 55.7 µM (not active)
SMILES: CC(=O)c1ccc(N/N=C2/CCCNC2=O)cc1

Continued, compound first:

SMILES: CCCc1nc(SCC(=O)N2CCC(Cc3ccccc3)CC2)c2c(=O)n(C)c(=O)n(C)c2n1
- EC50 [1]: 6.8 µM (active)
- IC50 [2]: > 20 µM (inactive)
- EC50 [3]: 5.46 µM (active)
- IC50 [4]: 8.67 µM (active)
- AC50 [5]: > 52 µM (inactive)
- EC50 [6]: 6.62 µM (active)
- EC50 [7]: 33.7 µM (active)
- AC50 [8]: 18.6 µM (active)
- IC50 [9]: 11.4 µM (active)
- IC50 [10]: 12.2 µM (active)
- AC50 [11]: 17.9 µM (active)
- EC50 [12]: 33.6 µM (active)
- IC50 [13]: 11 µM (active)
- IC50 [14]: 19.3 µM (active)
- IC50 [15]: 5.22 µM (active)

SMILES: COC(=O)c1c(NC(=O)C(=O)N2CCCCC2)sc2c1CC(C)(C)OC2
- IC50 [9]: > 20 µM (inactive)
- IC50 [10]: > 20 µM (inactive)
- IC50 [13]: > 20 µM (inactive)
- IC50 [14]: > 20 µM (inactive)

SMILES: CC1(C)CC[C@]2(C(=O)n3ccnc3)CC[C@]3(C)[C@H](C(=O)C=C4[C@@]5(C)C=C(C#N)C(=O)C(C)(C)[C@@H]5CC[C@]43C)[C@@H]2C1
- IC50 [22]: 20.7 µM (active)
- IC50 [20]: > 66.6 µM (inactive)
- AC50 [23]: 5.13 µM (active)
- IC50 [21]: 11.5 µM (active)
- AC50 [24]: 0.376 µM (active)
- IC50 [25]: 2.85 µM (active)
- CC50 [26]: 5.19 µM (active)
- IC50 [27]: 1.77 µM (active)
- AC50 [28]: < 0.26 µM (active)
- IC50 [29]: 38.2 µM (active)
- CC50 [30]: < 0.63 µM (active)

SMILES: O=C(Nc1ccc(N2C(=O)[C@@H]3[C@H](C2=O)[C@H]2C=C[C@@H]3CC2)c(Cl)c1)c1ccccn1
- EC50 [31]: 0.25 µM (active)

Reference: ChEMBL document CHEMBL1201862, “PubChem BioAssay data set” (2004)
